Our source for the IC50 values is patent publication US20070078123A1, “1-Thia-3-aza-dibenzo[e,h]azulenes for the treatment of central nervous system diseases and disorders” (PILVA-ISTRAZIVACKI INSTITUT D.O.O., priority 2003, published 2007).

In one assay the target is T1, 5-HT2A receptor (Homo sapiens, UniProt P28223).
T1 construct: expressed in transfected cells; host or cells: CHO-K1 (or COS-7) cells; alternatively human cortex tissue
Briefly: Radioligand binding assay for 5-HT2A receptor ([3H]-ketanserin competitive binding). The note with it: human cortex or recombinant 5-HT2A receptor expressed in CHO-K1 cells, read-out: binding affinity to 5-HT2A serotonin receptor expressed as IC50 value. The protocol: (§1) The effect of the compounds of the present invention on the neurochemical steady state was determined by in vitro investigations such as a radionuclide-marked radioligand binding assay for 5-HT2A (Bonhaus D. W. Br. J. Pharmacol. 1995, 115:622; Saucier C. J. Neurochem. 1997, 68:1998) and 5-HT2C receptors (Wolf W. A. J. Neurochem. 1997, 69:1449), in vitro binding assay for σ1 receptor (Thomson W. and Donn R. Arthritis Res. 2002, 4: 302-306) and by in vivo investigations in a tail suspension test (Vogel H. G. and Vogel W. H. Drug Discovery and Evaluation Pharmacological Assays, Springer 1997, 304), in amphethamine-induced hyperlocomotion in mice (Millan M. J. et al, 1998 J Pharmacol. Exp. 7her. 287: 167-186), in a forced swim test in mice (Porsolt R. D. et al. Arch. Int. Pharmacodyn. 1977, 229:327-336), in meta-chlorophenyl piperazine (m-CPP) test on rats (Drug Dev. Res. 1989, 18:119-144), and in apomorphine, tryptamine and norepinephrine (ATN) test in rats (Arch. Int. Pharmacodyn. 1977, 227:238-253). […]
(§2) During incubation the radioligand bound to the receptor. When a binding balance was achieved, the receptors to which the radioligand was bound were separated from those to which said ligand was not bound, and the radioactivity of the receptor/radioligand complex was measured. […]

In a further assay the target is T2, 5-HT2C receptor (Homo sapiens, UniProt P28335).
T2 construct: expressed in transfected cells; host or cells: CHO-K1 (or COS-7) cells; alternatively choroid plexus tissue
T2 sequence (P28335 33-458): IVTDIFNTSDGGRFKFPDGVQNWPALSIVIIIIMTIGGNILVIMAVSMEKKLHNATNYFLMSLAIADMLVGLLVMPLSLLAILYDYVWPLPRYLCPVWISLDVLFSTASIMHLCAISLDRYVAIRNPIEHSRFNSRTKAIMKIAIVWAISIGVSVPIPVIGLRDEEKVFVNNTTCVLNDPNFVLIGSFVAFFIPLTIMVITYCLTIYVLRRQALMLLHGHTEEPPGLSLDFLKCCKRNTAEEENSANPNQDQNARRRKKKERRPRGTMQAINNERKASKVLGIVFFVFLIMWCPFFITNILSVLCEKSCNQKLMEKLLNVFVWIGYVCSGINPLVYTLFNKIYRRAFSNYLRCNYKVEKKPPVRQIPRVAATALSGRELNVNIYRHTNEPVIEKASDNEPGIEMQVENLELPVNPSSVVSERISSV
Briefly: Radioligand binding assay for 5-HT2C receptor ([3H]-mesulergine competitive binding). The note with it: choroid plexus or recombinant 5-HT2C receptor expressed in CHO-K1 cells, read-out: binding affinity to 5-HT2C serotonin receptor expressed as IC50 value. The protocol: as §1, §2

T1 sequence (P28223 whole entry): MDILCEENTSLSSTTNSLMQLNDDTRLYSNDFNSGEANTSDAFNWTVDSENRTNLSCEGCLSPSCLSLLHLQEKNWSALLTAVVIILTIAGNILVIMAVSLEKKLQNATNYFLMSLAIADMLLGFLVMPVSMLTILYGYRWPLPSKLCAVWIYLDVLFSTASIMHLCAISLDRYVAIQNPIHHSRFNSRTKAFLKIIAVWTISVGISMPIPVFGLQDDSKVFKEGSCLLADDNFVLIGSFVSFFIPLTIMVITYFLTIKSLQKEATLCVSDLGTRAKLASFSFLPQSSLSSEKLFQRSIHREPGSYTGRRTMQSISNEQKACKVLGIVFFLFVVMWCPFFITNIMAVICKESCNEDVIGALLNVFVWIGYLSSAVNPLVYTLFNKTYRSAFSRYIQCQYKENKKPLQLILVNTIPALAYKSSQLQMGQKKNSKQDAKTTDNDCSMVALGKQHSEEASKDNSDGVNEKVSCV

On to `CN(C)CCCOCc1nc2c(s1)-c1ccccc1Oc1ccc(Cl)cc1-2` [[3-(5-chloro-8-oxa-1-thia-3-aza-dibenzo[e,h]azulen-2-ylmethoxy)-propyl]-dimethyl-amine], for which the IC50 on 5-HT2A receptor and at 5-HT2C receptor was less than 0.2 µM each time.

The term IC50 denotes the concentration that gives 50% inhibition.
